The record followed here is patent US20260184700A1, “PDK1 REGULATORY COMPOUND AND COMPOSITION CONTAINING THE SAME” (PROVIBIO CO., LTD., priority 2024, published 2026).

The test system of data set [1] is HCT-116 colon cancer cell lines. Briefly: Invasion Assay using Matrigel, HCT-116. The class given is cell-based, human. The settings on record: HCT-116, Matrigel invasion, 24 hours treatment. The procedure:
To evaluate the metastasis inhibitory efficacy of the compounds of the present invention on HCT-116 colon cancer cell lines, an Invasion Assay using Matrigel was performed to assess the cells' invasion ability.
First, Matrigel was thawed on ice in RPMI-1640 medium without FBS, then diluted with DMEM at a ratio of 1:20.
The diluted Matrigel mixture was applied to the upper chamber at 100 μl per well, and 750 μl of RPMI-1640 without FBS was added to the lower chamber.
The plates were then incubated at 37° C. for 1 hour to allow the Matrigel to solidify.
After coating, the Matrigel mixture in the upper chamber was removed using a pipette, and the chamber was washed with RPMI without FBS.
Human-derived colorectal cancer cell line HCT-116, obtained from the Korean Cell Bank, was cultured in RPMI-1640 medium containing 10% FBS.
Following stabilization, the cells were harvested using Trypsin-EDTA treatment, centrifuged at 1,200 rpm for 3 minutes, the supernatant was removed, and the cells were resuspended in the same medium, the medium in the lower chamber was replaced with 750 μl of RPMI-1640 supplemented with 10% FBS, and the cells were seeded into the upper chamber at a density of 5×10^4 cells/well.
The cells were cultured for 24 hours after attachment, and then the compounds according to the present invention (G078, G085, G086, G088, G089, PBK-2024-010, PBK-2025-010, PBK-2025-013, PBK-2025-016) and the control substance DMSO were diluted and added to the upper chamber after removing the medium.
Additionally, the medium in the lower chamber was replaced with fresh RPMI-1640 containing FBS, and the culture was continued.
After an additional 24 hours, the medium was removed, and 1 ml of methanol was added for 10 minutes to fix the cells.
Subsequently, 1 ml of Hematoxylin was added and reacted for 5 minutes, followed by 1 ml of Eosin, which was reacted for 30 seconds. The sample was then washed with distilled water (DW).
After staining was complete, any remaining cells in the upper chamber were removed. Finally, the infiltrated cells were observed under a microscope, photographed, and the degree of infiltration was analyzed.

In data set [2] the test system is T cells isolated from mouse spleen. Briefly: T cell proliferation inhibition, CFSE flow cytometry, CD3/CD28 activation. The settings on record: CD3/CD28 activated, 3 days. The class given is cell-based. Put shortly:
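Splenic T cells from 7-week-old C57BL/6 mice were MACS-isolated, CFSE-labelled, seeded at 2×10^5 cells/well and activated with anti-CD3/anti-CD28 (0.5 μg/mL each). Compound at 10 nM–50 μM (six levels, triplicate) was present for 3 days at 37 °C before flow cytometric readout of proliferation inhibition rate.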

The test system of data set [3] is MRL/lpr mice. Put plainly: Lupus animal model (MRL/lpr mice). It is filed as in vivo, mouse. The settings on record: 41-week-old female MRL/lpr mice; GO15F (30 mg/kg), GO48 (1 mg/kg), GO88 (0.5 mg/kg) intraperitoneally once daily. From the text:
The MRL/MpJ-Faslpr/J (Hereinafter Referred to as “MRL/lpr”) used in this experiment is one of the representative animal models for systemic lupus erythematosus (SLE), known to produce various autoantibodies, including antinuclear antibodies, due to the lpr (lymphoproliferation) gene.
In this invention, the period up to 9 weeks of age was considered the pre-disease stage, and the period after 23 weeks of age was considered the post-disease stage, and efficacy verification experiments using this model were conducted.
MRL/lpr mice were imported from The Jackson Laboratory and acclimatized for one week in an SPF (Specific Pathogen Free) facility maintained at a temperature of 21-24° C., humidity of 40-60%, and a 12-hour light-dark cycle (lights on at 7:00 AM, lights off at 7:00 PM). […]
The serum separated at the time of necropsy of the lupus animal model was analyzed using the ‘IgG (Total) Mouse Uncoated ELISA Kit (Invitrogen, Cat. #88-50400)’ to measure the concentration of total IgG.
Capture antibody (anti-mouse IgG) diluted 1/250 in coating buffer was added to each well of a 96-well plate (Nunc™ MaxiSorp™ ELISA Plates, Uncoated, BioLegend, Cat. #423501) at 100 μl per well, and the plate was incubated at 4° C. for 16 hours.
To investigate the effect of GO15F administration on changes in the ratio of immune cells in the spleen of a lupus animal model, the spleens of mice administered each compound were excised, cells were extracted, and the cells were suspended in MACS buffer (autoMACS Washing Solution, Miltenyi Biotec., Cat. #130-092-987).
For flow cytometry analysis, FACS tubes (5 mL round tubes, Falcon, Cat. #352052) were used. To prevent non-specific binding of antibodies, 1 μg/mL of anti-mouse CD16/CD32 (InVivoPlus anti-mouse CD16/CD32, BioXCell, Cat. #BP0307) for 30 minutes to prevent non-specific binding of the antibody, then centrifuge at 1,500 rpm for 5 minutes and resuspend in 100 μL of MACS buffer.
For B cells, each FACS tube was stained with 1 μg/mL of FITC-conjugated anti-B220 antibody (eBioscience™, Cat. #11-0452-81) at 4° C. for 30 minutes, then washed with 2 mL of MACS buffer.
For T cells, each FACS tube was stained with 1 μg/mL PerCP-Cy5.5-conjugated anti-CD3 (Biolegend, Cat. #100218) at 4° C. for 30 minutes.
For macrophages, each FACS tube was stained with 1 μg/mL of PE-conjugated anti-CD11b antibody (Biolegend, Cat. #101207) and PerCP-Cy5.5-conjugated anti-F4/80 (Biolegend, Cat. #123128) and incubated at 4° C. for 30 minutes. The tubes were then washed with 2 mL of MACS buffer.
To investigate the effects of compound GO15F according to the present invention on systemic immune responses in a lupus animal model, gene expression analysis of cytokines in kidney tissue was performed as described in (1).
Each kidney tissue was used to isolate total RNA using TRIzol™ (Invitrozen, Cat. #15596018). RNA from each mouse was quantified at 1 μg using a micro-quantitative spectrophotometer (ThermoFisher Scientific, ND2000) and cDNA was synthesized.
The synthesized cDNA from each mouse was quantified to a concentration of 50 ng using a micro-quantitative spectrophotometer, and qPCR was performed for the cytokines ‘IL-2, IL-6, IL-10, IL-17, TNF-α, IFN-γ’ using a SYBR green probe (CFX96, BIO-RAD).
To investigate the effects of drug administration on renal tissue in MRL/lpr mice, the tissue was fixed in 10% neutral buffered formalin at room temperature, followed by stepwise ethanol penetration for dehydration. The tissue was then embedded in xylene and paraffin.
The blocked tissues were sectioned into 4 μm thick slices using a microtome, followed by deparaffinization, hydration, and staining.
Hematoxylin & Eosin staining, PAS staining, and Masson trichrome staining were performed for pathological evaluation of the tissues. […]

Data set [4] has as its system phospho-PDK1 in SU-DHL-8 cells. Briefly: PDK1 phosphorylation (pPDK1) by flow cytometry in SU-DHL-8 cells. It is filed as cell-based, human. The settings on record: SU-DHL-8, 24 hours, pPDK1-PE flow cytometry, vs control group. On the procedure: SU-DHL-8 cells were cultured in RPMI-1640 medium (containing 10% FBS, 100 U/mL penicillin, and 100 μg/mL streptomycin), and the cell concentration was adjusted to 1×10^6 cells/mL and seeded into a 12-well plate. After stabilizing the cells, the compound of the present invention was added, and the cells were cultured for 24 hours.
After drug treatment, the cells were harvested, and the Fc receptor blocking process was performed. The cells were then fixed and permeabilized using the Intracellular Staining Kit (Cat. No. BD554715) from BD Biosciences. Subsequently, the intracellular pPDK1 was stained using the pPDK1-PE fluorescently labeled antibody (BD Biosciences).
Referring to the figure, the vertical axis represents the phosphorylation level of PDK1 (phospho-PDK1 expression level), and the horizontal axis denotes the concentration-dependent treatment conditions of each compound.
A general note: A flow cytometer gives signals particle by particle.

Data set [5] deals with Human B Lymphocyte cell line, SU-DHL-8. Briefly: Relative cell viability, CCK-8, SU-DHL-8. To be noted: 48 hours. The class given is cell-based. The procedure: Human-derived B lymphoma cell line SU-DHL-8 (Cat. #CRL-2961) purchased from ATCC was cultured in RPMI-1640 medium containing 10% FBS, 100 U/mL penicillin, and 100 μg/mL streptomycin.
The cell culture medium was then harvested, centrifuged at 1,300 rpm for 5 minutes, and the supernatant was removed. The cells were resuspended in the same medium and dispensed into a 96-well plate (Costar 96-well cell culture plate, Corning) at 90 μL per well, resulting in the conditions specified in Table 5.
Then, 10 μL of CCK-8 was added to each well, and the plates were incubated again at 37° C. in a 5% CO2 incubator for 4 hours.
In other words, when the survival rate of untreated cells (DMSO) is set at 100%, the relative cell survival rate in each group treated with the drug at different concentrations is indicated.

Turning to “12-(4-hydroxypiperazin-1-yl)dodecyl-N-(6-aminopurazin-2-yl)carboxamide [Compound 10]”, the “number of infiltrated cells” value in data set [1] was “reduction in the number of infiltrated cells”. For the same compound, the “Proliferation inhibition rate (%)” value in data set [2] (compound 10 nM), in data set [2] (compound 100 nM), in data set [2] (compound 1 μM), in data set [2] (compound 10 μM), in data set [2] (compound 30 μM) and in data set [2] (compound 50 μM) was 100.00% each time.
As to `Nc1ncccc1C(=O)NCCCCCCCCCCCCN1CCOCC1` [Compound 2, 2-Amino-N-(12-morpholin-4-yl-dodecyl)-nicotinamide], the “hair growth on the facial region” value in data set [3] is recorded as “hair growth was confirmed”. Further, the “PDK1 phosphorylation (phospho-PDK1 expression level)” value in data set [4] is given as “stronger PDK1 inhibition”.
With `Nc1ncccc1C(=O)NCCCCCCCCCCCCN1CCNCC1` [Compound 5, 2-Amino-N-(12-(piperazin-1-yl)dodecyl)-nicotinamide], the “number of infiltrated cells” value in data set [1] is “reduction in the number of infiltrated cells”.
On to `O=C(NCCCCCCCCCCCCN1CCN2CCCC2C1)c1cccnc1` (stereo not drawn) [Compound 23, N-(12-(hexahydropyrrolo[1,2-a]pyrazin-2 (1H)-yl)dodecyl)nicotinamide], for which, in data set [1], the “number of infiltrated cells” value was “reduction in the number of infiltrated cells”.
The same measure, in the same setting: in the case of `CC(C)(C)OC(=O)N[C@H]1CCN(CCCCCCCCCCCCNC(=O)c2cccnc2N)C1` [Compound 49, tert-Butyl(S)-(1-(12-(2-aminonicotinamido)dodecyl)pyrrolidin-3-yl)carbamate] it was “reduction in the number of infiltrated cells”.
`Cc1ccc(OC2CCN(CCCCCCCCCCCCNC(=O)c3cccnc3N)CC2)cc1` [Compound 51, 2-Amino-N-(12-(4-(p-tolyloxy)piperidin-1-yl)dodecyl) nicotinamide]: the “Proliferation inhibition rate (%)” value in data set [2] (compound 10 nM) is reported as 0.77%; in data set [2] (compound 1 μM) it was 100.00%; in data set [2] (compound 10 μM), 100.00%; in data set [2] (compound 30 μM), 100.00%; in data set [2] (compound 50 μM) it was 100.00%. Also, the “Relative cell viability (%)” value in data set [5] (SU-DHL-8, 30 μM) was 0.89%; in data set [5] (SU-DHL-8, 50 μM), 0.48%.
In the case of `Nc1ncccc1C(=O)NCCCCCCCCCCCCN1CC(F)C1` [Compound 52, 2-Amino-N-(12-(3-fluoroazetidin-1-yl)dodecyl)nicotinamide], the “number of infiltrated cells” value in data set [1] is “reduction in the number of infiltrated cells”.
Turning to `Cc1ccc(C2CCN(CCCCCCCCCCCCNC(=O)c3cccnc3N)CC2)cc1` [Compound 55, 2-Amino-N-(12-(4-(p-tolyl)piperidin-1-yl)dodecyl) nicotinamide], the “Proliferation inhibition rate (%)” value in data set [2] (compound 100 nM), in data set [2] (compound 1 μM), in data set [2] (compound 10 μM), in data set [2] (compound 30 μM) and in data set [2] (compound 50 μM) was 100.00% in each case. The “Relative cell viability (%)” value in data set [5] (SU-DHL-8, 30 μM) is 1.10%; in data set [5] (SU-DHL-8, 50 μM), 0.97%.
